Source: ChEMBL document CHEMBL4428125, “8-Substituted 1,3-dimethyltetrahydropyrazino[2,1-f]purinediones: Water-soluble adenosine receptor antagonists and monoamine oxidase B inhibitors” (Bioorg Med Chem, 2016)
Converted amounts (≈) assume the structure as drawn.

Columns and labels:
Adenosine receptor A1 [1] = molecular target: T1, Adenosine receptor A1 (Rattus norvegicus, UniProt P25099); experiment: Displacement of [3H]CCPA from A1 receptor in rat brain cortex membranes by liquid scintillation counting method; format: cell membranes
T1 sequence (P25099 whole entry): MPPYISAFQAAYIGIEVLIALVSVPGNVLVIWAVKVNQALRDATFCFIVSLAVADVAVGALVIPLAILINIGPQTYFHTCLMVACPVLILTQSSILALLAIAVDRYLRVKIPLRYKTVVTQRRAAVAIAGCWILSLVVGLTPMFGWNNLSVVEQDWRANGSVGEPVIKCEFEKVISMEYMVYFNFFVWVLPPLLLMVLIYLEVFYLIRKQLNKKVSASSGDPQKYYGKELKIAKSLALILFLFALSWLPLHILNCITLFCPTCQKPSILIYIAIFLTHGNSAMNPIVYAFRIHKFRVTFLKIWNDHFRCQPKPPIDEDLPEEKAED

[2] = molecular target: T2, Adenosine receptor A1 (Rattus norvegicus) (UniProt P25099); experiment: Displacement of [3H]CCPA from A1 receptor in rat brain cortex membranes at 1.5 uM by liquid scintillation counting method; format: cell membranes
T2 sequence (whole entry): T1 sequence (P25099 whole entry)

Adenosine receptor A2a [3] = molecular target: Adenosine receptor A2a (Rattus norvegicus, UniProt P30543); experiment: Displacement of [3H]MSX from A2A receptor in rat brain striatum membranes measured after 30 mins by liquid scintillation counting method; format: cell membranes
Chain of Adenosine receptor A2a (Rattus norvegicus, UniProt P30543) (P30543 whole entry): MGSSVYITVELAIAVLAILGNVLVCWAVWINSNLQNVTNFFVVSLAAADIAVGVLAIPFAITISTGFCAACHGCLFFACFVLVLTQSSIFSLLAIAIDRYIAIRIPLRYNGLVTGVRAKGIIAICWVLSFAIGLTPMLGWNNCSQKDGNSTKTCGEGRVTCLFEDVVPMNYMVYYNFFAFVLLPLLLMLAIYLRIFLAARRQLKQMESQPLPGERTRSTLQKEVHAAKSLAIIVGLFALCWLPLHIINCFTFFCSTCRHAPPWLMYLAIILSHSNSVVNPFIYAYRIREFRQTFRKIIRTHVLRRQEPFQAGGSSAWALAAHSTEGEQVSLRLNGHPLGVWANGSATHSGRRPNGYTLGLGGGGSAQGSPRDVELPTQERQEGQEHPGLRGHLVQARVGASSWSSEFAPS

[4] = molecular target: Adenosine receptor A2a (Rattus norvegicus) (UniProt P30543); experiment: Displacement of [3H]MSX from A2A receptor in rat brain striatum membranes at 1 uM measured after 30 mins by liquid scintillation counting method relative to control; format: cell membranes
Chain of Adenosine receptor A2a (Rattus norvegicus) (P30543 whole entry): as above

[5] = molecular target: T3, Amine oxidase [flavin-containing] A (Homo sapiens, UniProt P21397); experiment: Inhibition of recombinant human MAO-A expressed in baculovirus infected BTI insect cells preincubated for 30 mins followed by addition of p-tyramine as substrate measured over 45 mins by Amplex Red MAO assay
T3 sequence (P21397 whole entry): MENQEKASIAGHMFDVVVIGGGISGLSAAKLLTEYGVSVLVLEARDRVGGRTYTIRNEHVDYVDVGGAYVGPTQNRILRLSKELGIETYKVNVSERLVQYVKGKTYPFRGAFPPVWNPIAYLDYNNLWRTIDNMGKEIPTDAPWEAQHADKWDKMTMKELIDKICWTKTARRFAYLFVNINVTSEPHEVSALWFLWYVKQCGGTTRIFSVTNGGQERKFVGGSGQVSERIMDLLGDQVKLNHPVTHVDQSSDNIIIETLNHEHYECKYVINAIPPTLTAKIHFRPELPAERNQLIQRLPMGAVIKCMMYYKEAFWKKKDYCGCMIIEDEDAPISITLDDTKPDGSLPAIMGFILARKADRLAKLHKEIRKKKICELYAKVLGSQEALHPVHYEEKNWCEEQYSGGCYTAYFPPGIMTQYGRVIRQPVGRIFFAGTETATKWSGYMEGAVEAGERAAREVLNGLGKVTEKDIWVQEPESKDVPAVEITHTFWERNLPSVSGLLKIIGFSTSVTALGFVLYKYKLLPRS

[6] = molecular target: T3, Amine oxidase [flavin-containing] A; experiment: Inhibition of recombinant human MAO-A expressed in baculovirus infected BTI insect cells at 10 uM preincubated for 30 mins followed by addition of p-tyramine as substrate measured over 45 mins by Amplex Red MAO assay relative to control; conditions: 0.75 h
[7] = molecular target: T4, Amine oxidase [flavin-containing] B (Homo sapiens, UniProt P27338); experiment: Inhibition of recombinant human MAO-B expressed in baculovirus infected BTI insect cells preincubated for 30 mins followed by addition of p-tyramine as substrate measured over 45 mins by Amplex Red MAO assay
T4 sequence (P27338 whole entry): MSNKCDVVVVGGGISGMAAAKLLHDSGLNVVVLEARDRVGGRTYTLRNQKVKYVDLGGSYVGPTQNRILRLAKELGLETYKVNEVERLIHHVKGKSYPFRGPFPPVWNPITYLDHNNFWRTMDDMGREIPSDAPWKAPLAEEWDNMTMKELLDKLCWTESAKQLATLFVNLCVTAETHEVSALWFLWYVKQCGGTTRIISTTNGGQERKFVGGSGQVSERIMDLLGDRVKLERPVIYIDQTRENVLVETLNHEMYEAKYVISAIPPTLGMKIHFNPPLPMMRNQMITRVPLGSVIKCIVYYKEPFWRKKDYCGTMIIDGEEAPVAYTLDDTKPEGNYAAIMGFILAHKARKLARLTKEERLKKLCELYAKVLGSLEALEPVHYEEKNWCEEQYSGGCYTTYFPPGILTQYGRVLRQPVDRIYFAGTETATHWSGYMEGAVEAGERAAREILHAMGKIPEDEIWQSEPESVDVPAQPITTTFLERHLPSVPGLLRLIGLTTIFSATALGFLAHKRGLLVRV

[8] = molecular target: T4, Amine oxidase [flavin-containing] B; experiment: Inhibition of recombinant human MAO-B expressed in baculovirus infected BTI insect cells at 10 uM preincubated for 30 mins followed by addition of p-tyramine as substrate measured over 45 mins by Amplex Red MAO assay relative to control; conditions: 0.75 h
Adenosine receptor A2b = molecular target: T5, Adenosine receptor A2b (Homo sapiens, UniProt P29275); experiment: Displacement of [3H]PSB-603 from human A2B receptor expressed in CHO cell membrane; format: cell membranes
T5 sequence (P29275 whole entry): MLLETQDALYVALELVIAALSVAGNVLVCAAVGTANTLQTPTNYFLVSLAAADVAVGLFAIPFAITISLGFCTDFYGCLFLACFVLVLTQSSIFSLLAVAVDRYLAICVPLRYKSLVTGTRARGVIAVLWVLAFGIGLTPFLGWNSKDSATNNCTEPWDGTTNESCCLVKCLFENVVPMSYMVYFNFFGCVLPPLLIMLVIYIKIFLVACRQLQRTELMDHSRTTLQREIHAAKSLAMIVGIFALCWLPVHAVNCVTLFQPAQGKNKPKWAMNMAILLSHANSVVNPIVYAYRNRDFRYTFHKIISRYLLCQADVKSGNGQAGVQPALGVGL

[9] = molecular target: T6, Adenosine receptor A2b (Homo sapiens) (UniProt P29275); experiment: Displacement of [3H]PSB-603 from human A2B receptor expressed in CHO cell membrane at 1 uM relative to control; format: cell membranes
T6 sequence (whole entry): T5 sequence (P29275 whole entry)

Adenosine receptor A3 = molecular target: T7, Adenosine receptor A3 (Homo sapiens, UniProt P0DMS8); experiment: Displacement of [3H]PSB-11 from human A3 receptor expressed in CHO cell membrane by liquid scintillation counting method relative to control; format: cell membranes
T7 sequence (P0DMS8 whole entry): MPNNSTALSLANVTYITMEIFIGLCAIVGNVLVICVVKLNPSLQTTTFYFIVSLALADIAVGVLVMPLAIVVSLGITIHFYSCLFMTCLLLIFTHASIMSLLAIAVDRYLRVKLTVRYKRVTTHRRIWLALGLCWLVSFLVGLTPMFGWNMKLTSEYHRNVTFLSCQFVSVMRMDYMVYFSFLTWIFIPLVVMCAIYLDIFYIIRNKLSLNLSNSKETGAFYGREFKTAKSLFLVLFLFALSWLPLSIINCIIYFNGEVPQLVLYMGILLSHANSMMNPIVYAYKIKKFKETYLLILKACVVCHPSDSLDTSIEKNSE

[10] = Thermodynamic solubility of the compound at pH 1; format: physicochemical; conditions: buffer, read-out: Therm_solubility
[11] = Thermodynamic solubility of the compound at pH 4; format: physicochemical; conditions: buffer, read-out: Therm_solubility
[12] = Thermodynamic solubility of the compound at pH 7.4; format: physicochemical; conditions: buffer, read-out: Therm_solubility
[13] = molecular target: T8, Adenosine receptor A3 (Homo sapiens) (UniProt P0DMS8); experiment: Displacement of [3H]PSB-11 from human A3 receptor expressed in CHO cell membrane at 3 uM by liquid scintillation counting method relative to control relative to control; format: cell membranes
T8 sequence (whole entry): T7 sequence (P0DMS8 whole entry)

[14] = molecular target: T8, Adenosine receptor A3 (Homo sapiens); experiment: Displacement of [3H]PSB-11 from human A3 receptor expressed in CHO cell membrane at 10 uM by liquid scintillation counting method relative to control relative to control; format: cell membranes
[15] = molecular target: T6, Adenosine receptor A2b (Homo sapiens); experiment: Displacement of [3H]PSB-603 from human A2B receptor expressed in CHO cell membrane at 0.3 uM relative to control; format: cell membranes
Adenosine receptor A1 [16] = molecular target: T9, Adenosine receptor A1 (Homo sapiens, UniProt P30542); experiment: Displacement of [3H]CCPA from human A1 receptor expressed in CHO cell membrane by liquid scintillation counting method; format: cell membranes
T9 sequence (P30542 whole entry): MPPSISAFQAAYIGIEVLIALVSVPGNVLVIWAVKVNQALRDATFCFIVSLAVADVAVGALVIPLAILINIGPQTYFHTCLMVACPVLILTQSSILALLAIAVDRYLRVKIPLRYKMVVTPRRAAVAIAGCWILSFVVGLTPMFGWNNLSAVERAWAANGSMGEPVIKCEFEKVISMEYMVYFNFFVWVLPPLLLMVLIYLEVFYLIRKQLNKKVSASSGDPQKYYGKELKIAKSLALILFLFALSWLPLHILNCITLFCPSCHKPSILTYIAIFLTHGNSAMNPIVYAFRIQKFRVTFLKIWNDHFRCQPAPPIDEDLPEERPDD

Adenosine receptor A2a [17] = molecular target: Adenosine receptor A2a (Homo sapiens, UniProt P29274); experiment: Displacement of [3H]MSX from human A2A receptor measured after 30 mins by liquid scintillation counting method
Chain of Adenosine receptor A2a (Homo sapiens, UniProt P29274) (P29274 whole entry): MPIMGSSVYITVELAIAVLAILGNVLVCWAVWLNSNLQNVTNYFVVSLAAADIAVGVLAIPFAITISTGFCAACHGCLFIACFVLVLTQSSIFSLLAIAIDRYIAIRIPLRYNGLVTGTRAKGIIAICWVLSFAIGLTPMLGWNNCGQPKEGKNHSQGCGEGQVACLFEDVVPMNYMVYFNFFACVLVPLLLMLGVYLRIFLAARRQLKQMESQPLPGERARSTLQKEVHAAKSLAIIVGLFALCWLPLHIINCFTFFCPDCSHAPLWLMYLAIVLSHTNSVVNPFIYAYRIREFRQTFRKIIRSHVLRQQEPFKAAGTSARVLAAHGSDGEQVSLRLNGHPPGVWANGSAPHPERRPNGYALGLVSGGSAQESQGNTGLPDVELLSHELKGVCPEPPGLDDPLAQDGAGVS

| Structure (SMILES) | Ki (Adenosine receptor A1 [1]) [µM] | Activity [2] [%] | Ki (Adenosine receptor A2a [3]) [µM] | Activity [4] [%] | IC50 [5] [µM] | inhibition at 10 µM [6] [%] | IC50 [7] [µM] | inhibition at 10 µM [8] [%] | Ki (Adenosine receptor A2b) [µM] | Activity [9] [%] | Ki (Adenosine receptor A3) [µM] | solubility thermodynamic [10] [µg/mL] | solubility thermodynamic [11] [µg/mL] | solubility thermodynamic [12] [µg/mL] | Activity [13] [%] | Activity [14] [%] | Activity [15] [%] | Ki (Adenosine receptor A1 [16]) [µM] | Ki (Adenosine receptor A2a [17]) [µM] |
| --- | --- | --- | --- | --- | --- | --- | --- | --- | --- | --- | --- | --- | --- | --- | --- | --- | --- | --- | --- |
| COc1ccc(Br)cc1CCN1CCn2c(nc3c2c(=O)n(C)c(=O)n3C)C1 | > 1.5 | 3 | > 1 | 27 | > 10 | 34 | > 10 | 3 | > 1 | 8 | > 3 | 300 (≈ 669 µM) | < 0.5 | < 0.5 | 14 |  |  |  |  |
| Cn1c(=O)c2c(nc3n2CCN(CCCn2cccc2)C3)n(C)c1=O | > 1.5 | -4 | > 1 | 10 | > 10 | 7 | > 10 | 27 | > 1 | 10 | > 3 | > 1500 | < 200 | < 70 | 3 |  |  |  |  |
| C#CCN1CCn2c(nc3c2c(=O)n(C)c(=O)n3C)C1 | > 1.5 | 13 | > 1 | 28 |  |  | > 10 | 27 | > 0.3 | 10 | > 10 |  |  | 800 (≈ 2930 µM) | 19 | 19 | 10 |  |  |
| Cn1c(=O)c2c(nc3n2CCN(Cc2csc(-c4ccc(Cl)cc4)n2)C3)n(C)c1=O | 0.076 |  | 0.062 |  | > 10 | 3 |  | 47 | > 1 | 17 | > 10 |  |  | < 0.5 |  | 43 |  | 0.492 | 0.346 |
| Cn1c(=O)c2c(nc3n2CCN(C2Cc4ccccc4C2)C3)n(C)c1=O | > 1.5 | 12 | > 10 | 26 |  |  | 7.59 |  | > 1 | 13 | > 3 |  |  |  | 11 |  |  |  |  |
| Cn1c(=O)c2c(nc3n2CCN(CCCc2cccc(Br)c2)C3)n(C)c1=O | > 1.5 | 17 | 0.45 |  | > 10 | 16 | > 10 | 26 | > 1 | 19 | > 10 | 100 (≈ 231 µM) | < 0.5 | < 0.5 |  | 35 |  | 3.88 | 0.512 |
| Cn1c(=O)c2c(nc3n2CCN(CCOc2ccccc2)C3)n(C)c1=O | > 1.5 | -1 | > 1 | 24 | > 10 | 11 | > 10 | 16 | > 0.3 |  | > 10 | 1100 (≈ 3100 µM) | 60 (≈ 169 µM) | 20 (≈ 56.3 µM) |  | 32 | 4 |  |  |
| Cn1c(=O)c2c(nc3n2CCN(CCc2ccc4c(c2)OCO4)C3)n(C)c1=O | > 1.5 | 5 | 6.17 |  |  |  | > 10 | 24 | > 1 | 12 | > 3 | 300 (≈ 782 µM) | 1 (≈ 2.61 µM) | < 0.5 | 9 |  |  |  |  |
| Cn1c(=O)c2c(nc3n2CCN(Cc2csc(-c4cccc(Cl)c4)n2)C3)n(C)c1=O | 0.437 |  | 0.16 |  | > 10 | -13 | > 10 | -2 | > 1 | 6 | > 10 |  |  | 2 (≈ 4.52 µM) |  | 40 |  | 0.073 | 0.363 |
